This is an account of results in patent US20100174066A1, “PROCESS FOR PREPARING CRYSTALLINE FORM I OF OLANZAPINE” (priority 2005, published 2010).

The nature of the data set: Heat sensitivity of olanzapine Form I wet crystals dried in an air tray drier; Form II content quantified by XRPD. The settings on record: 8 hours, LOQ about 0.5% by weight. It is filed as physicochemical. The method, then: Olanzapine Form I wet crystals obtained by following the process similar to that given in Example 1 were taken and dried at different temperatures in an air tray drier for 8 hours to check the impact on the crystalline purity of Form I obtained. The results are tabulated below in Table 1:
497.5 mg of olanzapine Form I and 2.5 mg of olanzapine Form II (weight ratio of olanzapine Form Ito Form II of 99.5:0.5) were weighed and mixed with 50.0 mg of lithium fluoride. The mixture was mixed and ground three times using a mortar and pestle made of agate to get a homogeneous fine powder. A maximum quantity of the finely ground sample was packed in a sample holder and this was used as the standard for powder X-ray diffraction analysis.
500 mg of olanzapine Form I test sample was weighed and mixed with 50 mg of lithium fluoride. The mixture was mixed and ground three times using a mortar and pestle made of agate to get a homogeneous fine powder. A maximum quantity of the finely ground sample was packed in a sample holder and this was used as the test sample for the analysis.
The standard and the test sample were analyzed and the intensity at 8.60° (2θ) in the diffractogram of the test sample was compared with respect to that of the 0.5% standard. If the test sample intensity at 8.60° (2θ) is more than that of the 0.5% standard, then the presence of Form II in Form I is more than 0.5%. If the test sample intensity at 8.60° (2θ) is less than that of the 0.5% standard, then the presence of Form II in Form I is less than 0.5%.

SMILES strings stand for the structures.

Regarding `Cc1cc2c(s1)Nc1ccccc1N=C2N1CCN(C)CC1` [Olanzapine Form I, 2-methyl-4-(4-methyl-1-piperazinyl)-10H-thieno[2,3-b][1,5]benzodiazepine], the “Form II content (%)” value (drying temperature 60 °C) is listed as “Less than 0.5%”; the “Form II content (%)” value (drying temperature 75-80 °C) is on record as “Less than 0.5%”; the “Form II content (%)” value (drying temperature 100 °C) was “Less than 0.5%”; the “Form II content (%)” value (drying temperature 125 °C) is recorded as “More than 0.5%”; the “Form II content (%)” value (drying temperature 150 °C) is “More than 0.5%”; the “Form II content (%)” value (drying temperature 180 °C) is on record as “More than 0.5%”.
